# Activity calls are given as the source filed them. The calls are words filed in the database; no cut-off is given here.
# Test system: HeLa
# Test: Inhibition of hemagglutininin-tagged HIV1 Rev protein nuclear export in human HeLa cells assessed as localization at 5 uM by indirect fluorescent antibody technique
# Assay type: cell-based
# Settings: Human immunodeficiency virus 1
smiles,measurement,value
C=C[C@H](OC(C)=O)c1ccc(OC(C)=O)cc1,Activity,Active
